Test results taken from patent publication US20250144067A1, “PERSONALIZED STARVATION THERAPY FOR CANCER” (Faeth Therapeutics, Inc., priority 2021, published 2025).
Structures can show the parent of a compound that is named as a salt. Where two headings read alike, the source gives them in different places.

Experiments:
[1] = system: NCI-H292 lung cancer cells; test: FDA drug screening, complete media vs cholesterol-free media with simvastatin (TABLE 2); assay type: cell-based, human
[2] = system: NCI-H292 lung cancer cells; test: FDA drug screening, complete media vs cholesterol-free media without statin (TABLE 1); assay type: cell-based, human
[3] = NCI-H292 cells, cholesterol-free media with simvastatin 0.04 μM, FDA drug library screen (TABLE 2)
[4] = NCI-H292 cells, complete media, FDA drug library screen (TABLE 2)
[5] = complete media minus cholesterol-free media + simvastatin (0.04 μM), >0 enhanced anti-cancer activity, about 0 neutral, <0 antagonist
[6] = Complete minus Cholesterol-free, greater than 0 enhanced anti-cancer activity, about 0 neutral, below 0 antagonist
[7] = NCI-H292 cells, FDA drug library screen, cholesterol-free media without statin
[8] = NCI-H292 cells, FDA drug library screen, complete media
[9] = complete media vs cholesterol-free media + simvastatin (0.04 μM), >0 enhanced anti-cancer activity, about 0 neutral, <0 antagonist
[10] = NCI-H292 cells, cholesterol-free media without statin
[11] = complete vs cholesterol-free media, greater than 0 enhanced anti-cancer activity, about 0 neutral, below 0 antagonists
[12] = NCI-H292 cells, FDA drug library screen, cholesterol-free media with simvastatin 0.04 μM
[13] = Complete minus Cholesterol-free, >0 enhanced anti-cancer activity, about 0 neutral, <0 antagonist
[14] = NCI-H292 cells, FDA library drug in cholesterol-free media with simvastatin 0.04 μM
[15] = NCI-H292 cells, FDA library drug in complete media
[16] = Complete minus Cholesterol-free, greater than 0 enhanced anti-cancer activity, about 0 neutral, below 0 antagonists
[17] = NCI-H292 cells in cholesterol-free media without statin
[18] = NCI-H292 cells in complete media
[19] = NCI-H292 cells, cholesterol-free media with simvastatin 0.04 μM, cell growth value in FDA drug screen
[20] = NCI-H292 cells, complete media, cell growth value in FDA drug screen
[21] = complete media minus cholesterol-free media + simvastatin, >0 enhanced anti-cancer activity, about 0 neutral, <0 antagonist
[22] = NCI-H292 cells, cholesterol-free media without statin, FDA drug library screen
[23] = NCI-H292 cells, complete media, FDA drug library screen
[24] = complete media minus cholesterol-free media + simvastatin, […]
[25] = complete vs cholesterol-free media, […]

Compound: Lapatinib (ditosylate)
- Cholesterol-free media + simvastatin (0.04 μM) [1, 3]: 0.4889
- Complete Media [1, 4]: 0.4758
- Difference [1, 5]: −0.01
- Difference [2, 6]: −0.15
- Cholesterol-free [2, 7]: 0.4354
- Complete [2, 8]: 0.2847

Compound: Garenoxacin (Mesylate hydrate)
- Cholesterol-free media + simvastatin (0.04 μM) ([1]; NCI-H292 cells, drug in cholesterol-free media with simvastatin 0.04 μM): 1.436
- Complete Media ([1]; NCI-H292 cells, drug in complete media): 1.268
- Difference [1, 9]: −0.17
- Cholesterol-free [2, 10]: 1.769
- Complete ([2]; NCI-H292 cells, complete media): 1.3
- Difference [2, 11]: −0.47

Compound: CC(C)C(=O)OCC(=O)[C@@]12O[C@H](C3CCCCC3)O[C@@H]1C[C@H]1[C@@H]3CCC4=CC(=O)C=C[C@]4(C)[C@H]3[C@@H](O)C[C@@]12C [Ciclesonide]
- Cholesterol-free media + simvastatin (0.04 μM) [1, 12]: 0.6652
- Complete Media [1, 8]: 0.5742
- Difference [1, 9]: −0.09
- Difference [2, 13]: −0.28
- Cholesterol-free [2, 10]: 0.7014
- Complete ([2]; NCI-H292 cells, complete media): 0.4234

Compound: CO[C@@]1(NC(=O)Cc2cccs2)C(=O)N2C(C(=O)O)=C(COC(N)=O)CS[C@@H]21 [Cefoxitin]
- Cholesterol-free media + simvastatin (0.04 μM) [1, 14]: 1.841
- Complete Media [1, 15]: 1.5
- Difference [1, 9]: −0.34
- Difference [2, 6]: −0.13
- Cholesterol-free [2, 7]: 0.8861
- Complete [2, 8]: 0.755

Compound: Cc1ccc(C(=O)Nc2ccc(CN3CCN(C)CC3)c(C(F)(F)F)c2)cc1C#Cc1cnc2cccnn12 [Ponatinib]
- Cholesterol-free media + simvastatin (0.04 μM) [1]: 0.4683
- Complete Media [1]: 0.4064
- Difference [1]: −0.06
- Cholesterol-free [2]: 0.1141
- Complete [2]: 0.07529
- Difference [2]: −0.04

Compound: CCCCS(=O)(=O)N[C@@H](Cc1ccc(OCCCCC2CCNCC2)cc1)C(=O)O [Tirofiban (hydrochloride monohydrate)]
- Cholesterol-free media + simvastatin (0.04 μM) [1, 12]: 1.824
- Complete Media [1, 8]: 1.693
- Difference [1, 9]: −0.13
- Difference [2, 16]: −0.96
- Cholesterol-free [2, 17]: 1.842
- Complete [2, 18]: 0.8788

Compound: C[C@@H](O[C@H]1OCCN(Cc2n[nH]c(=O)[nH]2)[C@H]1c1ccc(F)cc1)c1cc(C(F)(F)F)cc(C(F)(F)F)c1 [Aprepitant]
- Cholesterol-free media + simvastatin (0.04 μM) [1, 19]: 1.036
- Complete Media [1, 20]: 1.144
- Difference [1, 21]: 0.11
- Difference [2, 13]: −0.20
- Cholesterol-free [2, 10]: 0.998
- Complete ([2]; NCI-H292 cells, complete media): 0.7992

Compound: O=C(O)Cc1ccccc1Nc1c(Cl)cccc1Cl [Diclofenac (potassium)]
- Cholesterol-free media + simvastatin (0.04 μM) [1, 3]: 1.093
- Complete Media [1, 4]: 1.041
- Difference [1, 5]: −0.05
- Difference [2, 13]: −0.03
- Cholesterol-free [2, 22]: 1.133
- Complete [2, 23]: 1.107

Compound: CC1(C)[C@H](C(=O)O)N2C(=O)C[C@H]2S1(=O)=O [Sulbactam]
- Cholesterol-free media + simvastatin (0.04 μM) [1]: 1.06
- Complete Media [1]: 1.241
- Difference [1]: 0.18
- Cholesterol-free [2]: 1.094
- Complete [2]: 1.056
- Difference [2]: −0.04

Compound: CC(=O)OCC(CCn1cnc2cnc(N)nc21)COC(C)=O [Famciclovir]
- Cholesterol-free media + simvastatin (0.04 μM) [1, 14]: 1.597
- Complete Media [1, 15]: 1.161
- Difference [1, 9]: −0.44
- Difference [2, 13]: −0.27
- Cholesterol-free [2, 10]: 1.022
- Complete ([2]; NCI-H292 cells, complete media): 0.7509

Compound: C[C@@H](O)[C@H]1C(=O)N2C(C(=O)O)=C(S[C@@H]3CN[C@H](C(=O)N(C)C)C3)[C@H](C)[C@H]12 [Meropenem (trihydrate)]
- Cholesterol-free media + simvastatin (0.04 μM) [1, 3]: 1.099
- Complete Media [1, 4]: 1.05
- Difference [1, 5]: −0.05
- Cholesterol-free [2, 22]: 1.169
- Complete [2, 23]: 1.522
- Difference ([2]; complete vs cholesterol-free media, >0 enhanced anti-cancer activity, about 0 neutral, <0 antagonist): 0.35

Compound: Dimenhydrinate
- Cholesterol-free media + simvastatin (0.04 μM) [1, 19]: 0.8945
- Complete Media [1, 20]: 0.9753
- Difference [1, 21]: 0.08
- Cholesterol-free [2, 10]: 1.237
- Complete ([2]; NCI-H292 cells, complete media): 0.8523
- Difference [2, 11]: −0.39

Compound: O=C(NC(Cc1cc(=O)[nH]c2ccccc12)C(=O)O)c1ccc(Cl)cc1 (centres unmarked) [Rebamipide]
- Cholesterol-free media + simvastatin (0.04 μM) [1, 12]: 1.344
- Complete Media [1, 8]: 1.19
- Difference [1, 9]: −0.15
- Difference [2, 16]: −0.60
- Cholesterol-free [2, 17]: 1.735
- Complete [2, 18]: 1.132

Compound: Cc1cc2c(cc1S(N)(=O)=O)S(=O)(=O)CCC2 [Meticrane]
- Cholesterol-free media + simvastatin (0.04 μM) [1, 14]: 1.393
- Complete Media [1, 15]: 0.8316
- Difference [1, 9]: −0.56
- Difference [2, 13]: −0.25
- Cholesterol-free [2, 10]: 1.363
- Complete ([2]; NCI-H292 cells, complete media): 1.109

Compound: O=C1CN2Cc3c(ccc(Cl)c3Cl)N=C2N1 [Anagrelide (hydrochloride)]
- Cholesterol-free media + simvastatin (0.04 μM) [1, 14]: 1.221
- Complete Media [1, 15]: 0.9483
- Difference [1, 9]: −0.27
- Difference [2, 13]: −0.26
- Cholesterol-free [2, 10]: 0.988
- Complete ([2]; NCI-H292 cells, complete media): 0.7326

Compound: CC(C)[C@H](N)C(=O)O [L-Valine]
- Cholesterol-free media + simvastatin (0.04 μM) ([1]; NCI-H292 cells, cholesterol-free media with simvastatin 0.04 μM, […]): 0.8399
- Complete Media ([1]; NCI-H292 cells, complete media, […]): 0.8676
- Difference [1, 24]: 0.03
- Difference ([2]; Complete minus Cholesterol-free, […]): −0.26
- Cholesterol-free [2, 10]: 1.382
- Complete ([2]; NCI-H292 cells, complete media): 1.127

Compound: Cc1ccccc1N1C(=O)c2cc(S(N)(=O)=O)c(Cl)cc2NC1C (centres unmarked) [Metolazone]
- Cholesterol-free media + simvastatin (0.04 μM) [1, 12]: 1.129
- Complete Media [1, 8]: 0.9754
- Difference [1, 9]: −0.15
- Difference [2, 16]: −0.62
- Cholesterol-free [2, 17]: 1.469
- Complete [2, 18]: 0.8441

Compound: COc1ccc2c3c1O[C@H]1C[C@@H](O)C=C[C@@]31CCN(C)C2 [Galanthamine]
- Cholesterol-free media + simvastatin (0.04 μM) [1, 3]: 1.051
- Complete Media [1, 4]: 1.046
- Difference ([1]; complete media minus cholesterol-free media + simvastatin (0.04 μM), […]): −0.01
- Cholesterol-free [2, 10]: 1.164
- Complete ([2]; NCI-H292 cells, complete media): 0.829
- Difference [2, 25]: −0.33

Compound: C[C@H](O)C(=O)Nc1c(I)c(C(=O)NC(CO)CO)c(I)c(C(=O)NC(CO)CO)c1I [Iopamidol]
- Cholesterol-free media + simvastatin (0.04 μM) [1, 14]: 1.516
- Complete Media [1, 15]: 1.092
- Difference [1, 9]: −0.42
- Difference [2, 6]: −0.15
- Cholesterol-free [2, 7]: 1.136
- Complete [2, 8]: 0.9871

Compound: O=[N+]([O-])O[C@@H]1CO[C@H]2[C@@H]1OC[C@@H]2O [Isosorbide mononitrate]
- Cholesterol-free media + simvastatin (0.04 μM) [1, 12]: 0.8339
- Complete Media [1, 8]: 1.021
- Difference [1, 24]: 0.19
- Cholesterol-free [2, 10]: 1.459
- Complete ([2]; NCI-H292 cells, complete media): 1.127
- Difference [2, 25]: −0.33

Compound: CCCCCCCCCCCCN1CCCCCC1=O [Laurocapram]
- Cholesterol-free media + simvastatin (0.04 μM) [1, 12]: 1.036
- Complete Media [1, 8]: 0.883
- Difference [1, 9]: −0.15
- Difference [2, 13]: −0.06
- Complete [2, 23]: 0.887

Compound: CC(C)(C)NCC(O)CSc1nc(-c2ccc(C(N)=O)s2)cs1 (centres unmarked) [Arotinolol]
- Cholesterol-free media + simvastatin (0.04 μM) [1, 12]: 1.158
- Complete Media [1, 8]: 1.017
- Difference [1, 9]: −0.14
- Difference [2, 6]: −0.18
- Cholesterol-free [2, 7]: 1.165
- Complete [2, 8]: 0.9888

Compound: C#C[C@]1(O)CC[C@H]2[C@@H]3CCC4=CC(=O)CCC4=C3C=C[C@@]21CC [Gestrinone]
- Cholesterol-free media + simvastatin (0.04 μM) [1, 12]: 1.007
- Complete Media [1, 8]: 1.693
- Difference [1, 24]: 0.69
- Cholesterol-free [2, 22]: 0.8898
- Complete [2, 23]: 2.026
- Difference [2, 25]: 1.14
